Measured values from ChEMBL document CHEMBL5393453, “Compositions and methods of using the same for treatment of neurodegenerative and mitochondrial disease” (2021).
Activity calls are given as the source filed them. No cut-off for these calls is given here.

Key:
[1] = Cytotoxicity against human HeLa cells expressing YFP parkin in presence of FCCP/oligomycin at 25 uM assessed as maximum cell death by DAPI staining analysis relative to control; format: toxicity, cell-based
[2] = Cytotoxicity against human HeLa cells expressing YFP parkin assessed as highest safety dose by DAPI staining analysis; format: toxicity, cell-based; settings: read-out: Activity
[3] = Cytotoxicity against human HeLa cells expressing YFP parkin treated with FCCP/ oligomycin assessed as highest safety dose by DAPI staining analysis; format: toxicity, cell-based; settings: read-out: Activity
[4] = tested on: HeLa; assay: Induction of mitophagy in human HeLa Mito-Keima/YFP-Parkin cells treated with FCCP/oligomycin measured by FACS analysis relative to DMSO; format: functional
[5] = tested on: Primary hippocampal neuron; assay: Protection against PFFs induced alpha-synuclein fibril formation in C57BL/6 mouse derived primary hippocampal neurons assessed as reduction in phosphorylated S129 alpha-synuclein level at 1.56 to 12.5 uM measured after 6 days; format: functional, cell-based; settings: dose 1.56-12.5 µM, time 6.0 day
[6] = Therapy index in human HeLa Mito-Keima/YFP-Parkin cells treated with FCCP/oligomycin assessed as mitophagy safety margin by DAPI staining analysis; format: toxicity, cell-based; settings: read-out: TI
[7] = AUClast in C57BL/6 mouse at 10 mg/kg, po administered as single dose by mass spectrometry; format: ADME, organism-based; parameters: dose 10 mg/kg, route po; settings: in vivo
[8] = tested on: Mus musculus; assay: Protection against PFFs induced alpha-synuclein fibril formation in C57BL/6 mouse assessed as reduction in phosphorylated S129 alpha-synuclein level at 6.25 to 50 mg/kg, po administered twice daily; format: functional, organism-based; settings: dose 6.25-50 mg/kg
[9] = tested on: Primary hippocampal neuron; assay: Protection against PFFs induced alpha-synuclein fibril formation in C57BL/6 mouse derived primary hippocampal neurons assessed as reduction in phosphorylated S129 alpha-synuclein monomer level at 0.1 to 25 uM measured after 6 days; format: functional, cell-based; settings: dose 0.1-25 µM, time 6.0 day
[10] = tested on: HeLa; assay: Induction of mitophagy in human HeLa YFP-Parkin cells treated with FCCP/oligomycin assessed as cells with parkin recruited to mitochondria at 60 mins by FACS analysis; format: functional, cell-based; settings: 1 h
[11] = Cmax in C57BL/6 mouse at 25 mg/kg, po administered as single dose by mass spectrometry; format: ADME, organism-based; parameters: dose 25 mg/kg, route po; settings: in vivo
[12] = tested on: HeLa; assay: Induction of mitophagy in human HeLa Mito-Keima cells treated with FCCP/oligomycin measured by FACS analysis; format: functional, cell-based
[13] = Cmax in C57BL/6 mouse at 10 mg/kg, po administered as single dose by mass spectrometry; format: ADME, organism-based; parameters: dose 10 mg/kg, route po; settings: in vivo
[14] = AUClast in C57BL/6 mouse at 25 mg/kg, po administered as single dose by mass spectrometry; format: ADME, organism-based; parameters: dose 25 mg/kg, route po; settings: in vivo
[15] = tested on: Mus musculus; assay: Protection against kidney fibrosis in cisplatin-challenged C57BL/6 mouse assessed as rescue of KIM-1 at 6.25 to 50 mg/kg, po administered once a day for 3 days; format: functional, organism-based; settings: dose 6.25-50 mg/kg, time 3.0 day
[16] = tested on: Mus musculus; assay: Protection against kidney fibrosis in cisplatin-challenged C57BL/6 mouse assessed as reduction in Tnfrsf12a expression at 6.25 to 50 mg/kg, po administered once a day for 3 days; format: functional, organism-based; settings: dose 6.25-50 mg/kg, time 3.0 day
[17] = tested on: Primary hippocampal neuron; assay: Protection against PFFs induced alpha-synuclein fibril formation in C57BL/6 mouse derived primary hippocampal neurons assessed as reduction in phosphorylated S129 alpha-synuclein (250-12) level at 0.1 to 25 uM measured after 6 days; format: functional, cell-based; settings: dose 0.1-25 µM, time 6.0 day
[18] = Cmax in C57BL/6 mouse at 100 mg/kg, po administered as single dose by mass spectrometry; format: ADME, organism-based; parameters: dose 100 mg/kg, route po; settings: in vivo
[19] = tested on: Mus musculus; assay: Protection against PFFs induced alpha-synuclein fibril formation in C57BL/6 mouse assessed as reduction in phosphorylated S129 alpha-synuclein (250-12) level at 6.25 to 50 mg/kg, po administered twice daily; format: functional, organism-based; settings: dose 6.25-50 mg/kg
[20] = Cmax in C57BL/6 mouse at 50 mg/kg, po administered as single dose by mass spectrometry; format: ADME, organism-based; parameters: dose 50 mg/kg, route po; settings: in vivo
[21] = tested on: Mus musculus; assay: Protection against PFFs induced alpha-synuclein fibril formation in C57BL/6 mouse assessed as reduction in phosphorylated S129 alpha-synuclein monomer level at 6.25 to 50 mg/kg, po administered twice daily; format: functional, organism-based; settings: dose 6.25-50 mg/kg
[22] = AUClast in C57BL/6 mouse at 100 mg/kg, po administered as single dose by mass spectrometry; format: ADME, organism-based; parameters: dose 100 mg/kg, route po; settings: in vivo
[23] = AUClast in C57BL/6 mouse at 50 mg/kg, po administered as single dose by mass spectrometry; format: ADME, organism-based; parameters: dose 50 mg/kg, route po; settings: in vivo
[24] = tested on: Mus musculus; assay: Protection against kidney fibrosis in cisplatin-challenged C57BL/6 mouse assessed as reduction in Gdf15 expression at 6.25 to 50 mg/kg, po administered once a day for 3 days; format: functional, organism-based; settings: dose 6.25-50 mg/kg, time 3.0 day
[25] = tested on: Primary hippocampal neuron; assay: Protection against PFFs induced alpha-synuclein fibril formation in C57BL/6 mouse derived primary hippocampal neurons assessed as reduction in phosphorylated S129 alpha-synuclein level at 0.1 to 25 uM measured after 6 days; format: functional, cell-based; settings: dose 0.1-25 µM, time 6.0 day

SMILES: COC1CN([C@@H]2COc3ccccc3[C@H]2Nc2ncnc3[nH]c(C4CC4)cc23)C1
- Emax at 25 µM [1]: 22.5%
- MNTC [2]: 25 µM
- MNTC [3]: 25 µM

SMILES: FC(F)(F)c1cc2c(N[C@H]3c4ccccc4CC[C@@H]3N3CCOCC3)ncnc2[nH]1 (single isomer, unassigned)
- fold change (FC) [4]: 9.78
- Activity [5]: Active
- selectivity ratio [6]: > 30

SMILES: c1ccc2c(c1)OC[C@H](N1CCOCC1)[C@H]2Nc1ncnc2[nH]c(C3CC3)cc12
- AUC(0-t) [7]: 0.51 µM·h
- Activity [8]: Active
- Activity [9]: Active
- EC50 [10]: 1150 nM
- Cmax [11]: 1.15 µM
- EC50 [12]: 153 nM
- Cmax [13]: 0.35 µM
- AUC(0-t) [14]: 1.91 µM·h
- Activity [15]: Active
- MNTC [2]: 25 µM
- Activity [16]: Active
- Activity [17]: Active
- Cmax [18]: 19.4 µM
- Activity [19]: Active
- Cmax [20]: 9.21 µM
- MNTC [3]: 25 µM
- Activity [21]: Active
- AUC(0-t) [22]: 85.6 µM·h
- AUC(0-t) [23]: 17.3 µM·h
- Activity [24]: Active
- Activity [25]: Active

SMILES: FC(F)(F)c1cc2c(NC3CCCc4ccccc43)ncnc2[nH]1 (single isomer, unassigned)
- AUC(0-t) [7]: 1.79 µM·h
- fold change (FC) [4]: 4.43
- Activity [5]: Active
- EC50 [10]: 1740 nM
- EC50 [12]: 371 nM
- Cmax [13]: 0.49 µM
- Cmax [20]: 6.98 µM
- AUC(0-t) [23]: 30.5 µM·h
